This assay deals with HepG2 ERK1/2 phosphorylation, Western blot imaging. Description: ERK1/2 phosphorylation increase by Trib1 inducers, late-stage follow-up, mechanism study for Trib1 inducer project, cell-based, HepG2, Western blot imaging, cherry-pick (AID 1053148). Particulars: stronger effect = higher value. A general note: In western blotting, separated proteins are transferred to a membrane and probed.

Regarding `CN1C(=O)c2cc(NC(=O)c3ccc(C(F)(F)F)cc3)ccc2OC[C@@H]2O[C@H](CC(=O)NC3Cc4ccccc4C3)CC[C@@H]21`, the fold induction x10 was 2.

The values are drawn from PubChem BioAssay AID1053148 (Broad Institute, 2014).
